Results from EP0569598A1, “BENZOXAZINONE DERIVATIVE” (JAPAN TOBACCO INC., priority 1991, dated 1993).

How the values were obtained:
Format in all cases: biochemical
[1] = target: T1, bovine pancreatic α-chmotrypsin (CYT) (Bos taurus, UniProt P00766); assay: CYT inhibitory activity (synthetic substrate, pNA release); conditions: pH 8.0; CYT 3.4 nM, substrate 0.273 mM; read-out: IC₅₀ value CYT
T1 construct: bovine pancreatic α-chmotrypsin (CYT); purchased Sigma Co., Ltd
Experimental: (§1) Activities of the Benzoxazine derivatives of the present invention against human leukocyte elastase (HLE), human sputum elastase (HSE), human cathepsin G (HCG), bovine pancreatic α-chmotrypsin (CYT) and bovine pancreatic trypsin (TRY) were measured by the following method.
(§2) A test compound was dissolved in DMSO (for fluorometry) and prepared various concentration of the solution. To each concentration was added 2-fold volume of 0.2M Tris-HCl (pH8.6), thereby obtaining a test solution. Synthetic substrate (Funakoshi, L-1335) was dissolved in DMSO and 2-volume of 0.2M Tris-HCl (pH8.6) was added thereto, thereby obtaining a substrate solution. The reaction was performed using a microplate having 96 wells (Nunk). Six-time reactions were repeated for each concentration. One handred and forty µl of an enzyme solution containing 0.2M Tris-HCl (pH8.6), 30 µl of a test solution and 30 µl of a substrate solution per well of the microplate were respectively pre-incubated at 37°C for 10 minutes. After completion of the incubation, the enzyme solution was mixed with the test sample and incubated for 10 minutes and then the substrate solution was added to perform an enzyme reaction. The absorbance of released P-nitroanilide (PNA) was measured at the wave length of 405 nm by means of a microplate reader (MTP-100; CORONA), thereby determining the substrate decomposition. The rate of the substrate decomposition was shown as an average value of 6 repeated reactions. The inhibitory concentration of a test compound relative to the amount of the substrate decomposition in the reaction mixture without a test compound was regarded as an IC₅₀ value. The final concentration of HLE and a synthesized substrate in the reaction mixture were 5.63 nM and 0.2625 mM, respectively.
a) Enzyme obtaining route CYT was obtained from Sigma Co., Ltd.
Substantially the same method as used in the measurement of the HLE inhibitory activity was used except that a buffer solution (pH 8.0) was used. The final concentration of CYT and synthetic substrate (Funakoshi, L-1010) in a reaction mixture were 3.4 nM and 0.273 mM, respectively.

[2] = target: T2, bovine pancreatic trypsin (TRY) (Bos taurus, UniProt P00760); assay: TRY inhibitory activity (synthetic substrate, pNA release); conditions: pH 7.5; TRY 25 nM, substrate Z-Arg-pNA 1.0 mM; read-out: IC₅₀ value TRY
T2 construct: bovine pancreatic trypsin (TRY); purchased Sigma Inc
T2 sequence (P00760 24-246): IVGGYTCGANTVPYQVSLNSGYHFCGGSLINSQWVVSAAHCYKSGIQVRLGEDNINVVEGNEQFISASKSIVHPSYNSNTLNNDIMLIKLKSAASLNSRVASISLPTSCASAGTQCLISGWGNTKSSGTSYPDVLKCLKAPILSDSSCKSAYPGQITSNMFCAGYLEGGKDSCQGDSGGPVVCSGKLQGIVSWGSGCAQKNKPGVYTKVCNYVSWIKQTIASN
Experimental: as §1
as §2, with “The rate of the substrate decomposition was shown as an average value of 6 repeated reactions. The inhibitory concentration of a test compound relative to the amount of the substrate decomposition in the reaction mixture without a test compound was regarded as an IC₅₀ value. The final concentration of HLE and a synthesized substrate in the reaction mixture were 5.63 nM and 0.2625 mM, respectively.” left out

human cathepsin G (HCG) = target: T3, human cathepsin G (HCG) (Homo sapiens, UniProt P08311); assay: HCG inhibitory activity (synthetic substrate, pNA release); conditions: pH 7.5; HCG 50 nM, substrate 0.5 mM; read-out: IC₅₀ value HCG
T3 construct: purchased Cosmo Bio Inc
T3 sequence (P08311 21-244): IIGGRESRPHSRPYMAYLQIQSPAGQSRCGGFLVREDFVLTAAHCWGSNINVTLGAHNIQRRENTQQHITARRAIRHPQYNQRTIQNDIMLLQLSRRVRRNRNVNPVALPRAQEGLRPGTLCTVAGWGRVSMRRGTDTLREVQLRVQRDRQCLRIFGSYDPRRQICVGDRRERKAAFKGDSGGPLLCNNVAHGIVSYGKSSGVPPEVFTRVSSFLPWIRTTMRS
Experimental: as §1, §2
a) Enzyme obtaining route HCG was obtained from Cosmo Bio Inc.
The same method as in the measurement of HLE inhibitory activity was used except that a buffer solution (pH 7.5) was used. The final concentration of HCG and synthetic substrate (Funakoshi, L-1010) in a reaction mixture were 50 nM and 0.5 mM, respectively.

SMILES: Cc1cccc2nc([C@@H](NC(=O)OCC(c3ccccc3)c3ccccc3)C(C)C)oc(=O)c12 [Compound 1, 2-[1(S)-[(2,2-diphenylethoxy-carbonyl)amino]-2-methylpropyl]-5-methyl-4H-3,1-benzoxazin-4-one]
- IC50 [1]: 1.4 µM
- IC50 [2]: > 12.5 µM
- IC50 (human cathepsin G (HCG)): > 12.5 µM
